Values of other authors in article PMC8698672, “Selective Anticancer and Antimicrobial Metallodrugs Based on Gold(III) Dithiocarbamate Complexes” (Biomedicines, 2021).

Tested on: Caco-2/TC7 tumor cells
Settings: reference drugs, Caco-2 tumor cells; ref [27]; cited from earlier work

In the case of `CC(=O)OC[C@H]1O[C@@H]([S-])[C@H](OC(C)=O)[C@@H](OC(C)=O)[C@@H]1OC(C)=O.CCP(CC)CC.[Au+]` [auranofin, 2,3,4,6-tetra-o-acetyl-1-thio-b-D-glucopyranosato-(S)-triethylphosphine gold(I)], the IC50 is given as 2100 ± 400 nM.
